According to patent US20180106782A1, “HIGH THROUGHPUT CARDIOTOXICITY SCREENING PLATFORM” (The Board of Trustees of the Leland Stanford Junior …, priority 2016, published 2018):

System: μpatterned hiPSC-CMs
Test: sarcomere length (sl) and sarcomere shortening (ss) from videos of labeled myofibrils
Format: cell-based, human
Details: for average values of sl (sarcomere length): single cell with labeled myofibrils (FIG. 7A, 7E)
Procedure: We analyzed videos of beating patterned hiPSC-CMs with LifeAct-labeled myofibrils (Ribeiro 2015a) to quantify the organization and dynamics of sarcomeres along myofibrils. Sarcomere shortening and movement during the contractile cycle was determined from analyzing how the size of all labeled sarcomeres in a single hiPSC-CM varies during each of its contractile cycles. The minimal length that separates two proximal Z-lines defines sarcomere size. LifeAct labels actin between Z-lines, which correspond to dark lines in LifeAct-labeled myofibrils. (Ribeiro 2015a) Therefore, the minimal distance between adjacent dark lines in LifeAct-labeled myofibrils defines sarcomere size. We used four different approaches to quantify sarcomere size along LifeAct-labeled myofibrils from frames of single beating hiPSC-CMs (FIG. 12) and used the second approach for performing better when analyzing videos with minimal user intervention.
The second approach (FIG. 12B) is a novel method that we developed to determine sarcomere lengths in each frame without the need of curve-fitting procedures or radial Fourier transforms. The approach consists of automatically measuring the length of the segment between adjacent Z-lines that is parallel to the direction of myofibril alignment (FIG. 15). The algorithm for this approach measured the length from Z-line i to Z-line i+1 using information on myofibril orientation in the region around Z-line i and Z-line i+1 and considering a skeleton of sarcomeres generated as previously detailed for the first approach. The algorithm developed first a map of all points that compose the sarcomere skeleton and each point was taken once as a starting location of a path along the direction of myofibril orientation that stopped when another Z-line in the skeleton was reached (FIG. 15). The length between adjacent Z-lines was therefore defined as the Euclidean distance between start and end points calculated with this method (FIG. 15). The path was calculated pixel by pixel within the skeletonized image. For each new pixel of the path, the algorithm evaluated what the other pixel of the path was based on the local orientation of the myofibril. For pixels that were starting points or pixels already in a path, the local orientation angle of myofibrils was taken as the deciding factor to determine the next path pixel. In the algorithm, we particularly defined that the y direction of the path could be chosen freely, but only pixels in the +x direction could be candidates for the next element of the path (FIG. 15). This definition derived from the fact that every point composing the skeleton was considered as a starting point and because orientations of myofibrils are in the [0,Th] range. In relation to a known point of a path, the next neighboring pixel to be included as the next element of that path could be the pixel on the right, on the top, on the bottom, on the top right or on the bottom right (FIG. 15-B). Given this condition, a 10° angle or a 0° angle of known myofibril orientation lead to the same decision for the next pixel to include in the path: the pixel on the right. We estimated the local orientation of myofibrils through the MATLAB-written code RIDGEORIENT. (Kovesi 2000) This tool indicates the principle ridge direction through local gradient variations. By definition, the gradient is […] to the main orientation. (Krause 2009)
The global orientation of a myofibril between Z-lines was also taken in consideration for deciding the next pixel in the path between Z-lines (FIG. 15) because small angles can add up during the extending of the line defined by the path and better reveal the real myofibril orientation. For example, starting at a pixel on a Z-line (x1, y1) with a local orientation angle θ1=10°, the next pixel would have to be (x1+1, y1). If θ2=10°, the next pixel would again be to the right, adding (x1+2, y1) to the path. […]

Row | SMILES | minimal average sl (0.1 μM isoproterenol) | ss (sarcomere shortening) (0.1 μM isoproterenol (FIG. 7D)) | minimal average sl (1 μM isoproterenol) | increase of ss (sarcomere shortening) (1 μM isoproterenol (FIG. 7D)) | maximal mean values of sl (1 μM isoproterenol, relative to before adding (FIG. 7B)) | average values of sl (sarcomere length) | maximal average sl (chronic and acute effects of omecamtiv mecarbil (FIG. 7F)) | minimum average sl (chronic and acute effects of omecamtiv mecarbil (FIG. 7G)) | average ss (chronic and acute effects of omecamtiv mecarbil (FIG. 7H))
1 | CC(C)NCC(O)c1ccc(O)c(O)c1 (stereo not shown) [isoproterenol] | decreased | considerably increased | decrease even more | not with 1 μM | decreased | decreased |  |  | 
2 | COC(=O)N1CCN(Cc2cccc(NC(=O)Nc3ccc(C)nc3)c2F)CC1 [omecamtiv mecarbil] |  |  |  |  |  | decreased | decrease | decrease | decrease
